{
  "source": "patent EP2072037A1",
  "about": "“Hair dyeing compositions” (Farmen International Cosmetics Distribution S.p.A, priority 2007, dated 2009)",
  "tested_on": "HaCaT cells",
  "experiment": "MTT cytotoxicity assay on human keratinocytes (skin irritation potential)",
  "type": "cell-based",
  "conditions": "two hours",
  "excerpt": "To evaluate the skin irritation potential of compositions C and D (containing paraphenyldiamine) illustrated in example 1, an in vitro test was used, consisting of a cytotoxicity assay performed on a line of human keratinocytes (transformed human keratinocytes, HaCaT cells) that maintain full epidermal differentiation capability.\nIn this case, the goal of the test was to determine the effects of compositions C and D illustrated in Example 1 on the proliferation of keratinocytes through the cell vitality test, indirectly measured by MTT staining (Mossnam T, […], J. Immunol. Methods, 65:55-63).\nThe specimen comprising composition C or D was previously mixed with oxidant cream in the proportion 1:1.5 and left to act for 15 minutes. […]\nThe cells were treated for two hours to simulate the conditions of use of the dye. At the end of the two hours, the cells were subjected to the MTT test.\nFrom this value, the irritant potential of composition C and composition D can be estimated. Negative control comprised no treatment, whereas the surfactant sodium lauryl sulphate (SLS), whose cytotoxicity is well known, was used as positive control. Each experiment was done in triplicate, on cells plated 24 hours previously.",
  "data": [
    {"smiles": "CCCCCCCCCCCCOS(=O)(=O)[O-].[Na+]", "note": "[SLS, sodium lauryl sulphate]", "values": [
      {"measurement": "Cell vitality % (versus negative control)", "setting": "Dose 0.03 mg/mL", "value": 101.5, "unit": "%"},
      {"measurement": "Cell vitality % (versus negative control)", "setting": "Dose 0.06 mg/mL", "value": 109.7, "unit": "%"},
      {"measurement": "Cell vitality % (versus negative control)", "setting": "Dose 0.12 mg/mL", "value": 74.0, "unit": "%"},
      {"measurement": "Cell vitality % (versus negative control)", "setting": "Dose 0.25 mg/mL", "value": 3.4, "unit": "%"},
      {"measurement": "Cell vitality % (versus negative control)", "setting": "Dose 0.5 mg/mL", "value": 3.1, "unit": "%"},
      {"measurement": "IC50", "setting": "Homo sapiens, 2 h, concentration reducing cell vitality by 50% versus untreated cells, theoretical value from regression curve, MTT", "value": 148, "unit": "µg/mL"}
    ]}
  ]
}
